# Read-outs that look alike come from different tables or passages of the source. Residues, ends and D or L forms follow the SMILES beside them. No end group written: not given here.
# What was measured:
# Type in all cases: cell-based
# [1] = tested on: Escherichia coli ATCC 25922
# Protocol: (§1) Bacteria were grown overnight at 37 °C in Mueller-Hinton Broth (MHB; Sigma-Aldrich, St. Louis. MO, USA) in a shaking incubator and aliquoted into cryovials with a 50% glycerol solution in a 1:1 ratio. No additives were added to the MHB during the growth of bacterial isolates. Glycerol stocks were stored at −80 °C.
# (§2) The antimicrobial activity of the putative AMPs was determined by a broth microdilution assay as described by the Clinical and Laboratory Standards Institute, with the published adaptations for testing of cationic peptides. Escherichia coli 25922 and Staphylococcus aureus 29213 isolates were purchased from the American Type Culture Collection (ATCC; Manassas, VA, USA). A human clinical isolate of Salmonella enterica serovar Enteritidis was provided by the BC Centre for Disease Control. Bacteria from stocks stored at −80 °C were streaked onto nonselective Columbia blood agar with 5% sheep blood (Oxoid) and incubated overnight at 37 °C. Next, 2–4 colonies were streaked onto a new agar plate to ensure uniform health of colonies used in the broth microdilution assay. Isolated colonies were suspended in MHB and the optical density was measured with a spectrophotometer to create an initial inoculum concentration of approximately 1 × 10^8 cfu/mL. The inoculum was diluted 1:250 to a final concentration of 2–8 × 10^5 cfu/mL, which was confirmed by performing a Total Viability Count (TVC). The TVC consisted of plating a 1:1000 dilution of the final inoculum on nonselective media and was also used to confirm the health and purity of the inoculum in each trial.
# (§3) Lyophilized 80 µg peptide aliquots synthesized by GenScript (Piscataway, NJ, USA) were resuspended to 1.28 mg/mL with UltraPure water (Thermo Fisher Scientific, Waltham, MA, USA) and serially diluted in polypropylene 96-well microtiter plates (Greiner Bio-One #650261, Kremsmünster, Austria) from 128 down to 0.5 µg/mL. Two columns per plate were reserved for growth and sterility controls. Inoculum was added to the wells containing the peptide and the growth control. Plates were incubated for 20–24 h at 37 °C. The minimum inhibitory concentration (MIC) was determined as the lowest peptide concentration where there was no visible bacterial growth.
# [2] = tested on: Salmonella enterica serovar Enteritidis (human clinical isolate)
# Protocol: as §1, §2, §3
# [3] = tested on: Staphylococcus aureus ATCC 29213
# Protocol: as §1, §2, §3
# [4] = broth microdilution in MHB, peptide 128 down to 0.5 µg/mL, 20–24 h at 37 °C, no visible growth, range of three independent experiments
Molecule,"MIC, E. coli ATCC 25922 [1, 4] [mg/L]","MIC, Salmonella Enteritidis [2, 4] [mg/L]","MIC, S. aureus ATCC 29213 [3, 4] [mg/L]","MIC, E. coli ATCC 25922 ([1]; ATCC 25922) [mg/L]","MIC, Salmonella Enteritidis ([2]; serovar Enteritidis (human clinical isolate)) [mg/L]","MIC, S. aureus ATCC 29213 ([3]; ATCC 29213) [mg/L]"
CC[C@H](C)[C@H](NC(=O)[C@H](CCCCN)NC(=O)[C@H](CC(=O)O)NC(=O)[C@H](CC(C)C)NC(=O)[C@@H](NC(=O)CNC(=O)[C@@H](NC(=O)[C@H](CO)NC(=O)[C@H](Cc1ccccc1)NC(=O)[C@H](CC(N)=O)NC(=O)[C@H](CCCCN)NC(=O)[C@@H](NC(=O)CNC(=O)[C@H](CCC(=O)O)NC(=O)[C@H](CCCCN)NC(=O)[C@@H](NC(=O)[C@@H](NC(=O)[C@@H](NC(=O)[C@H](Cc1c[nH]c2ccccc12)NC(=O)[C@H](CC(C)C)NC(=O)CN)[C@@H](C)O)[C@@H](C)O)[C@@H](C)CC)C(C)C)C(C)C)C(C)C)C(=O)N[C@@H](CCCNC(=N)N)C(=O)N[C@@H](CS)C(=O)N[C@@H](CCCCN)C(=O)N[C@H](C(=O)N[C@H](C(=O)NCC(=O)NCC(=O)N[C@@H](CS)C(=O)O)[C@@H](C)O)[C@@H](C)CC [PeNi14] (H-GLWTTIKEGVKNFSVGVLDKIRCKITGGC-OH; N-terminus and C-terminus assumed),4 to 8,32,16 to 32,,,
CC[C@H](C)[C@H](NC(=O)[C@H](CO)NC(=O)[C@@H]1CCCN1C(=O)[C@H](CC(C)C)NC(=O)[C@@H](NC(=O)[C@H](CCCCN)NC(=O)[C@H](C)NC(=O)[C@H](C)NC(=O)[C@H](CC(C)C)NC(=O)CNC(=O)[C@H](C)NC(=O)[C@@H](NC(=O)[C@@H](NC(=O)[C@@H]1CCCN1C(=O)[C@H](CC(C)C)NC(=O)[C@@H](N)Cc1ccccc1)C(C)C)C(C)C)C(C)C)C(=O)N[C@H](C(=O)N[C@@H](CS)C(=O)N[C@@H](C)C(=O)N[C@H](C(=O)N[C@H](C(=O)N[C@@H](CCCCN)C(=O)N[C@@H](CCCCN)C(=O)N[C@@H](CS)C(=O)O)[C@@H](C)O)C(C)C)[C@@H](C)CC [RaCa15] (H-FLPVVAGLAAKVLPSIICAVTKKC-OH; N-terminus and C-terminus assumed),8 to 16,> 128,4 to 8,,,
CC(C)C[C@H](NC(=O)CN)C(=O)N[C@@H](CC(C)C)C(=O)NCC(=O)N[C@@H](CCCCN)C(=O)N[C@H](C(=O)N[C@@H](CC(C)C)C(=O)NCC(=O)N[C@H](C(=O)NCC(=O)N[C@@H](CCCCN)C(=O)N[C@@H](CCCCN)C(=O)N[C@H](C(=O)N[C@@H](CC(C)C)C(=O)N[C@@H](CS)C(=O)NCC(=O)N[C@H](C(=O)N[C@@H](CO)C(=O)NCC(=O)N[C@@H](CCCNC(=N)N)C(=O)N[C@@H](CS)C(=O)O)C(C)C)C(C)C)C(C)C)C(C)C [RaOm4] (H-GLLGKVLGVGKKVLCGVSGRC-OH; N-terminus and C-terminus assumed),4 to 8,32,64 to 128,,,
CC[C@H](C)[C@H](NC(=O)[C@H](CO)NC(=O)[C@@H]1CCCN1C(=O)[C@H](CC(C)C)NC(=O)[C@@H](NC(=O)[C@H](CCCCN)NC(=O)[C@H](C)NC(=O)[C@H](C)NC(=O)[C@H](CC(C)C)NC(=O)CNC(=O)[C@H](C)NC(=O)[C@@H](NC(=O)[C@@H](NC(=O)[C@@H]1CCCN1C(=O)[C@H](CC(C)C)NC(=O)[C@H](Cc1ccccc1)NC(=O)[C@H](CCCNC(=N)N)NC(=O)[C@H](CCC(N)=O)NC(=O)[C@H](CCC(=O)O)NC(=O)[C@@H](N)CCC(=O)O)C(C)C)C(C)C)C(C)C)C(=O)N[C@H](C(=O)N[C@@H](CS)C(=O)N[C@@H](C)C(=O)N[C@H](C(=O)N[C@H](C(=O)N[C@@H](CCCCN)C(=O)N[C@@H](CCCCN)C(=O)N[C@@H](CS)C(=O)O)[C@@H](C)O)C(C)C)[C@@H](C)CC [RaSy2] (H-EEQRFLPVVAGLAAKVLPSIICAVTKKC-OH; N-terminus and C-terminus assumed),64,> 128,64 to 128,,,
"AFVRILCYCCPRRIKRR [TeRu2, rAMPage-discovered AMP, Temnothorax rugatulus]",64 to 128,> 128,128,,,
AGLQFPVGRIHRHLKTR [PeNi6],> 128,> 128,> 128,,,
ATAWKVPPGLQPIRPIRIRPLCGNDKS [PeNi16],> 128,> 128,> 128,,,
AVLSFVHKLFLNFLHVDTSKGKCRATLQ [TeRu3],> 128,> 128,> 128,,,
DNKWQNVHFHRSAVTGPTSFSFSHK [AnFl1],,,,> 128,> 128,> 128
FIKTQVLKHLVAGVRVARGLDWKWR [CaCa2],8,> 128,64 to 128,,,
FILHAKKTRSAK [VeSi1],> 128,> 128,> 128,,,
FLPSSPWNEGTYVLKKLKS [PeNi15],> 128,> 128,> 128,,,
FPFPFGRR [RaSi2],> 128,> 128,> 128,,,
GAFVLWGPTPRPRRR [DiLo1],128,> 128,> 128,,,
GAHKEVFKRDTALTKEAAKKAKK [ApMe2],> 128,> 128,> 128,,,
"GFMDTAKNVAKNVAVTLLDNLKCKITKAC [OdMa13, rAMPage-discovered AMP, Odorrana margaretae]",64 to 128,> 128,> 128,,,
"GIFGGLLKEGKKIACGLSGLC [OdTo3, rAMPage-discovered AMP, Odorrana tormota]",32,> 128,> 128,,,
GIFSLIKGAAK [LeBo1],> 128,> 128,> 128,,,
"GIFSLIKGAAKVVAKGLG [PeNi3, rAMPage-discovered AMP, Pelophylax nigromaculatus]",16 to 32,64 to 128,64 to 128,,,
GIFSLIKGAAKVVAKGLGK [RaOm3],8 to 16,32 to 64,64,,,

# — publication PMC9774241, “Associating Biological Activity and Predicted Structure of Antimicrobial Peptides from Amphibians and Insects” (Antibiotics, 2022)
